These compounds were tested on HCV type 1b replicon (NS3-NS5B) in Huh-7 luc/neo cells (assay: HCV replicon assay (Huh-Luc luciferase)). Conditions: Hepatitis C virus, Huh-7, 72 h, three days incubation, luciferase activity.
Format: cell-based
From the text: The compounds of formula (I) were examined for activity in the inhibition of HCV RNA replication in a cellular assay. […] The cellular assay was based on a bicistronic expression construct, as described by Lohmann et al. (1999) Science vol. 285 pp. 110-113 with modifications described by Krieger et al. (2001) Journal of Virology 75: 4614-4624, in a multi-target screening strategy. In essence, the method was as follows.
The assay utilized the stably transfected cell line Huh-7 luc/neo (hereafter referred to as Huh-Luc). This cell line harbors an RNA encoding a bicistronic expression construct comprising the wild type NS3-NS5B regions of HCV type 1b translated from an Internal Ribosome Entry Site (IRES) from encephalomyocarditis virus (EMCV), preceded by a reporter portion (FfL-luciferase), and a selectable marker portion (neo^R, neomycine phosphotransferase). The construct is bordered by 5′ and 3′ NTRs (non-translated regions) from HCV type 1b. Continued culture of the replicon cells in the presence of G418 (neo^R) is dependent on the replication of the HCV RNA. The stably transfected replicon cells that express HCV RNA, which replicates autonomously and to high levels, encoding inter alia luciferase, are used for screening the antiviral compounds.
The replicon cells were plated in 384 well plates in the presence of the test and control compounds which were added in various concentrations. Following an incubation of three days, HCV replication was measured by assaying luciferase activity (using standard luciferase assay substrates and reagents and a Perkin Elmer ViewLux™ ultraHTS microplate imager). Replicon cells in the control cultures have high luciferase expression in the absence of any inhibitor. The inhibitory activity of the compound on luciferase activity was monitored on the Huh-Luc cells, enabling a dose-response curve for each test compound. EC50 values were then calculated, which value represents the amount of the compound required to decrease by 50% the level of detected luciferase activity, or more specifically, the ability of the genetically linked HCV replicon RNA to replicate.
The following Table 1 lists compounds that were tested for activity in the inhibition of HCV RNA replication in a cellular assay according to the procedure described above. Table 1 provides as well structure characterization data for the compounds of formula (I) as described herein. […] In each case, the expected parent ion was observed, and the Table further provides the LC conditions under which the mass spectrum was measured as well as the retention time of the observed product.

**Q.** COc1cnc(-c2cc(Cl)ccc2F)nc1Nc1ccncc1C(=O)NC[C@H]1CCCO1 [compound 3] was tested. Which EC50 did it give?
**A.** 2640 nM

**Q.** For COc1cnc(-c2cc(Cl)ccc2F)nc1Nc1ccncc1C(=O)NCCCN1CCOCC1 [compound 9], which EC50 is on record?
**A.** 1100 nM

**Q.** COc1cnc(-c2cc(Cl)ccc2F)nc1Nc1ccncc1C(=O)NCCN [compound 14] was tested. Which EC50 did it give?
**A.** 3670 nM

**Q.** Which EC50 does the source give for O=C(NCCO)c1cnccc1Nc1nc(-c2cc(Cl)ccc2F)ncc1C1CCCC1 [compound 8] here?
**A.** 16400 nM

**Q.** With COc1cnc(-c2cc(Cl)ccc2F)nc1Nc1ccncc1C(=O)NCCCN1CCCCC1C (stereo not drawn) [compound 13] as the compound, how does the EC50 read?
**A.** 550 nM

**Q.** Which EC50 does the source give for COc1cnc(-c2cc(Cl)ccc2F)nc1Nc1ccncc1C(=O)NCC(F)(F)F [compound 2] here?
**A.** 1160 nM

**Q.** For COc1cnc(-c2cc(Cl)ccc2F)nc1Nc1ccncc1C(=O)NCCCN1CCCC1=O [compound 1], which EC50 is on record?
**A.** 84 nM

**Q.** How did the EC50 turn out when COc1cnc(-c2cc(Cl)ccc2F)nc1Nc1ccncc1C(=O)NCCNCC(C)O (stereo not drawn) [compound 11] was run?
**A.** 1140 nM

**Q.** Which EC50 does the source give for CCOC(=O)CNC(=O)c1cnccc1Nc1nc(-c2cc(Cl)ccc2F)ncc1OC [compound 4] here?
**A.** 4620 nM

**Q.** COc1cnc(-c2cc(Cl)ccc2F)nc1Nc1ccncc1C(=O)NCCNCCO [compound 10] was tested. Which EC50 did it give?
**A.** 1480 nM

**Q.** For COc1cnc(-c2cc(Cl)ccc2F)nc1Nc1ccncc1C(=O)NCCCn1ccnc1 [compound 5], which EC50 is on record?
**A.** 921 nM

**Q.** With O=C(NC1CC1)c1cnccc1Nc1nc(-c2cc(Cl)ccc2F)ncc1C1CCCC1 [compound 6] as the compound, how does the EC50 read?
**A.** 12700 nM
